This is an account of results in ChEMBL document CHEMBL4002620, “Synthesis of Vorinostat and cholesterol conjugate to enhance the cancer cell uptake selectivity” (Bioorg Med Chem Lett, 2017).

Bounds are passed on as bounds.

Series [1] concerns NCI-H292. As to the kind of experiment: cells. The settings on record: Homo sapiens, NCI-H292, 72 h. The format is functional, cell-based.
Description: Growth inhibition of human NCI-H292 cells in LDL depleted FBS containing medium after 72 hrs using compound after sonication in presence of LDL by MTT assay
Series [2] relates to NCI-H292. Put plainly: cells. The format is functional, cell-based. The following applies: Homo sapiens, NCI-H292, 72 h. This is another data set of the same source.
Description: Growth inhibition of human NCI-H292 cells in FBS containing medium after 72 hrs using compound after sonication in presence of LDL by MTT assay
For series [3], the system named is NCI-H292. As to the kind of experiment: cells. The format is functional, cell-based. The settings on record: Homo sapiens, NCI-H292, 72 h. The source holds these as a separate data set.
Description: Growth inhibition of human NCI-H292 cells after 72 hrs by MTT assay
In series [4] the test system is NCI-H292. As to the kind of experiment: cells. The format is functional, cell-based. The following applies: Homo sapiens, NCI-H292, 72 h. The source holds these as a separate data set.
Description: Growth inhibition of human NCI-H292 cells after 72 hrs in presence of LDL by MTT assay
A short description of series [5]: Solubility of the compound in aqueous solution at 500 uM in presence of LDL. The format is physicochemical. The following applies: buffer.
A short description of series [6]: Drug metabolism in human NCI-H292 cells assessed as compound hydrolysis by measuring increase in 4-amino SAHA formation after 30 mins by HPLC-ESI-MS analysis. It is filed as ADME, cell-based. The following applies: nci-h292, 0.5 h.
The nature of series [7]: Solubility of the compound in aqueous solution at 20 uM. The settings on record: buffer. The format is physicochemical.

As to `CC(C)CCC[C@@H](C)[C@H]1CC[C@H]2[C@@H]3CC=C4C[C@@H](OC(=O)Nc5ccc(NC(=O)CCCCCCC(=O)NO)cc5)CC[C@]4(C)[C@H]3CC[C@]12C`, the IC50 was 91.2 µM in series [1], over 500 µM in series [2], over 500000 nM in series [3] and over 500 µM in series [4]. The solubility result is reported as “Soluble” in series [5] and “Insoluble” in series [7]. Besides, the Drug metabolism result in series [6] is reported as “Metabolite_Detected”.

For the compound `Nc1ccc(NC(=O)CCCCCCC(=O)NO)cc1`, the IC50 came out at 7.8 µM in series [1], 14.7 µM in series [2], 2770 nM in series [3] and 14.9 µM in series [4].
